From article PMC7939473, “Unique active-site and subsite features in the arabinogalactan-degrading GH43 exo-β-1,3-galactanase from Phanerochaete chrysosporium” (The Journal of Biological Chemistry, 2021) come the findings set out here.

The target of the test is T1, Pc1,3Gal43A (Phanerodontia chrysosporium, UniProt Q50KB2, E208A).
T1 construct: signal peptide removed; Gln21-Tyr448 (428 residues) plus two extra N-terminal residues Glu19-Phe20 from restriction site; GH43_sub24 catalytic domain (21-325) + CBM35 (326-448); expressed in Pichia pastoris, N-glycosylated at Asn79, Asn194, Asn389; monomer in solution
T1 sequence (Q50KB2 entry or part of it E208A): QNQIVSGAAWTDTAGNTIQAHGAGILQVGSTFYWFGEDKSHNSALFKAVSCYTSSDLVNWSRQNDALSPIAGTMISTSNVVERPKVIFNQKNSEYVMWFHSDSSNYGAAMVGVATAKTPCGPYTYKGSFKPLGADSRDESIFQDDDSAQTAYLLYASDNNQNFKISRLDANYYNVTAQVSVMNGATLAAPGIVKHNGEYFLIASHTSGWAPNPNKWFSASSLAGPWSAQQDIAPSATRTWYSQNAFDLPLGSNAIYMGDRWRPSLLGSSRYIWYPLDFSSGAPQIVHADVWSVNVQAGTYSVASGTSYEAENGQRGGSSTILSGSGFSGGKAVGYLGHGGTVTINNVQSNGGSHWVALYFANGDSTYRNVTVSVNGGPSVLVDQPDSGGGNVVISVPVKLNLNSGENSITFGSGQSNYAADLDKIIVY
Description: X-ray crystallography (co-crystal, […] Å). As to conditions: ligand-binding site of the CBM35 domain (not in catalytic site); 10 mM Gal3; pH 4.5.

As to `OC[C@H]1O[C@@H](O[C@H]2[C@@H](O)[C@@H](CO)O[C@@H](O[C@H]3[C@@H](O)[C@@H](CO)OC(O)[C@@H]3O)[C@@H]2O)[C@H](O)[C@@H](O)[C@H]1O` (stereo partly drawn) [Gal3, β-1,3-galactotriose], the “X-ray crystallography (co-crystal, 2.3 Å)” value was “In E208A_Gal3, electron density of Gal3 was observed in the ligand-binding site of PcCBM35”.
